The values that follow come from patent publication US7259142B2, “Redox-stable, non-phosphorylated cyclic peptide inhibitors of SH2 domain binding to target protein, conjugates thereof, compositions and methods of synthesis and use” (The United States of America, represented by the Secretary, …, priority 1999, dated 2007).

Like-named read-outs stand apart in the source and are kept apart here. Where a SMILES comes first, the peptide text is derived from it. Bridges are numbered along the chain shown (N, C = ends). Where no end group is shown, it is not given here. [ ]: non-standard residue; d: D form. pY = N[C@@H](Cc1ccc(OP(=O)(O)O)cc1)C(=O)O; Gla = N[C@@H](CC(C(=O)O)C(=O)O)C(=O)O

Experiment [1] concerns the target T1, p185^erbB-2 receptor association with the Grb2 adapter protein (MDA-MB-453 cell lysates) (Homo sapiens, UniProt P62993).
T1 construct: endogenous in cells; host or cells: MDA-MB-453 breast cancer cells
The experiment is described as follows: Inhibition of p185erbB-2 interaction with Grb2 in cell homogenates (anti-Grb2 immunoprecipitation, anti-pTyr Western blot). The format is biochemical. The method, then: Cell lysates were prepared from the serum-treated erbB-2-overexpressing breast cancer cell line MDA-MB-453 using 1% Triton X-100 in PBS containing 0.2 mM NaVO4. Lysates were incubated with the present inventive cyclic peptide inhibitors specified in Example 1 and Example 12, at concentrations of 0.1, 0.4, 2, 10 and 50 μM. No inhibitor was used as a control. Cell lysates were prepared using 1% Triton X-100 in PBS containing 0.2 mM NaVO4. Grb2 and associated Grb2-binding proteins were immunoprecipitated from each lysate (500 μg) with anti-Grb2 antibodies and collected using protein A Sepharose using methods previously described. Immunoprecipitated proteins were separated by SDS-PAGE on 8-16% gradient gels (Novex). pTyr-containing proteins were detected by Western blotting using anti-phosphotyrosine antibodies (Upstate Biotechnology Inc.). Previous experiments have shown that a major tyrosine phosphorylated protein in MDA-MB-453 cells is p185^erbB-2, which is overexpressed as a consequence of gene amplification. […] A dose-dependent inhibition of the p185^erbB-2 receptor association with the Grb2 adapter protein was observed.

For experiment [2], the target named is T2, p185^erbB-2/Grb2 association in MDA-MB-453 cells (Homo sapiens, UniProt P62993).
T2 construct: endogenous in cells; host or cells: MDA-MB-453 breast cancer cells
T2 sequence (P62993 whole entry): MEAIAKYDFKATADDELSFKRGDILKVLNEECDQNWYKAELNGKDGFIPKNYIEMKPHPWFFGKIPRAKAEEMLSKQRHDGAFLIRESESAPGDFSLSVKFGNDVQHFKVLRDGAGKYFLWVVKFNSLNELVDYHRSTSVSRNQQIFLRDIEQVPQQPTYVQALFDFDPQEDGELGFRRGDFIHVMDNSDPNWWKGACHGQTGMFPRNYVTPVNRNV
The experiment is described as follows: Inhibition of intracellular p185erbB-2/Grb2 association in whole MDA-MB-453 cells. Conditions: for concentration of effective inhibition of p185erbB-2/Grb2 association in cells: whole MDA-MB-453 cells treated 3 hrs in serum-free IMEM, inhibitor 0.1-50 μM. In kind it is cell-based. As to the method: The compound of Example 1, and the conjugate of Example 12, were tested in MDA-MB-453 cells (breast cancer cells that overexpress p185^erbB-2 receptor) at inhibitor concentrations of 0.1, 0.4, 2, 10 and 50 μM. In the control experiment, no inhibitor was used. The cells were treated for 3 hrs in serum-free IMEM medium. The cells were washed twice with ice-cold PBS to remove the residual inhibitory compound that was not internalized.
Cell lysates were prepared using 1% Triton X-100 in PBS containing 0.2 mM NaVO4. Grb2 and associated Grb2-binding proteins were immunoprecipitated from each lysate (500 μg) with anti-Grb2 antibodies and collected using protein A Sepharose using methods previously described. Immunoprecipitated proteins were separated by SDS-PAGE on 8-16% gradient gels (Novex). pTyr-containing proteins were detected by Western blotting using anti-phosphotyrosine antibodies (Upstate Biotechnology Inc.). Previous experiments have shown that a major tyrosine phosphorylated protein in MDA-MB-453 cells is p185^erbB-2, which is overexpressed as a consequence of gene amplification.
In these whole cell assays the agents were applied to the cell culture media of MDA-MB-453 cells. These conditions required that compounds transit through the cell membrane.

The target of experiment [3] is recombinant GST-Grb2 SH2 protein (Homo sapiens, UniProt P62993). The experiment is described as follows: Biacore Surface Plasmon Resonance competitive binding assay against immobilized SHC(pTyr-317)-9-mer phosphopeptide. Conditions: Biacore SPR, GST-Grb2-SH2 150-250 nM, PBS pH 7.4; mean of at least two independent experiments; read-out: IC50 (concentration at which half-maximal competition was observed). As to the method:
The competitive binding affinity of the present inventive compounds was assessed using Biacore Surface Plasmon Resonance (SPR) methods utilizing a Biacore 2000 instrument. The concentrations at which half-maximal competition was observed (IC50) were determined by mixing the inhibitor with recombinant GST-Grb2 SH2 protein and measuring the amount of competitive binding at equilibrium to an immobilized (via biotin conjugation to streptavidin coated surface of the Biacore sensor chip SA; 2 nM concentration) SHC(pTyr-317)-9-mer phosphopeptide in a manner similar to that reported previously (Oligino et al. (1997), supra). Specifically, competitive binding assays were carried out at 5 μl/min flow rate, with GST-Grb2-SH2 (150-250 nM) and a cyclic peptide inhibitor (10 nM-2 mM) in phosphate-buffered saline (PBS), pH 7.4, containing 0.01% P-20 surfactant (Biacore, Inc., Piscataway, N.J.) for a total of 10 min. The change in response units (RU) at equilibrium was measured from the absorption profiles and the percent of control (no added peptide) was calculated. […] The results represent the mean value of at least two independent experiments.

A further experiment addresses SH2 domain of Grb2 (Homo sapiens, UniProt P62993). As to conditions: background, previously reported values; read-out: IC50 (receptor affinity); cited from earlier work.

T1 sequence (P62993 whole entry): as above
Chain of recombinant GST-Grb2 SH2 protein (P62993 60-152 limits assumed): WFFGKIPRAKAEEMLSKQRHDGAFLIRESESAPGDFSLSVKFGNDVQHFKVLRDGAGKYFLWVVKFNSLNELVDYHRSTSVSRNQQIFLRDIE
Chain of SH2 domain of Grb2 (P62993 60-152 limits assumed): as above

On to `CSCC[C@@H]1NC(=O)CNC(=O)[C@H](C(C)C)NC(=O)[C@H](CC(N)=O)NC(=O)[C@H](CCC(=O)O)NC(=O)[C@H](Cc2ccc(O)cc2)NC(=O)[C@H](CC(C)C)NC(=O)[C@H](CC(C(=O)O)C(=O)O)NC(=O)CSC[C@@H](C(N)=O)NC(=O)[C@H](Cc2ccc(O)cc2)NC1=O` [Example 1, cyclo(CH2CO-Gla^1-Leu^2-Tyr^3-Glu^4-Asn^5-Val^6-Gly^7-Met^8-Tyr^9-Cys)-amide] ({CH2CO}-[Gla]LYENVGMYC-NH2; thioether N-10), for which the IC50 came out at 2000 nM in experiment [1] (MDA-MB-453 cell lysates, inhibitor 0.1-50 μM, read-out: half-maximal inhibition of p185erbB-2/Grb2 protein association) and 640 ± 100 nM in experiment [3]. In experiment [2], the “concentration of effective inhibition of p185erbB-2/Grb2 association in cells” value worked out at 50 µM.

`CSCC[C@@H]1NC(=O)CNC(=O)[C@H](C(C)C)NC(=O)[C@H](CC(N)=O)NC(=O)[C@H](CCC(=O)O)NC(=O)[C@H](Cc2ccc(O)cc2)NC(=O)[C@H](CC(C)C)NC(=O)[C@H](CC(C(=O)O)C(=O)O)NC(=O)CSC[C@@H](C(=O)N[C@@H](C)C(=O)N[C@@H](C)C(=O)N[C@H](C(=O)N[C@@H](C)C(=O)N[C@@H](CC(C)C)C(=O)N[C@@H](CC(C)C)C(=O)N2CCC[C@H]2C(=O)N[C@@H](C)C(=O)N[C@H](C(=O)N[C@@H](CC(C)C)C(=O)N[C@@H](CC(C)C)C(=O)N[C@@H](C)C(=O)N[C@@H](CC(C)C)C(=O)N[C@@H](CC(C)C)C(=O)N[C@@H](C)C(=O)N2CCC[C@H]2C(N)=O)C(C)C)C(C)C)NC(=O)[C@H](Cc2ccc(O)cc2)NC1=O` [Example 12, cyclo(CH2CO-Gla^1-Leu^2-Tyr^3-Glu^4-Asn^5-Val^6-Gly^7-Met^8-Tyr^9-Cys)-NH-Ala-Ala-Val-Ala-Leu-Leu-Pro-Ala-Val-Leu-Leu-Ala-Leu-Leu-Ala-Pro] ({CH2CO}-[Gla]LYENVGMYCAAVALLPAVLLALLAP-NH2; thioether N-10) gave an IC50 in experiment [1] of 2000 nM. The “reduction in the associated p185erbB-2 bound to Grb2 in cells” value in experiment [2] (whole MDA-MB-453 cells pre-treated with increasing amounts) was “clear dose-dependent reduction”. Moreover, the “concentration of effective inhibition of p185erbB-2/Grb2 association in cells” value in experiment [2] is 2 µM.

As for “SHC(pY^317)-9-mer: segment of the naturally phosphorylated ligand (DDPS[pY]VNVQ)”, the IC50 with SH2 domain of Grb2 was 1000 nM.
